Laboratory results as given in patent US20240058308A1, “TREATMENT AND PREVENTION OF DRY MACULAR DEGENERATION” (The Regents of the University of Michigan, priority 2021, published 2024).
In brackets after ≈: the same amount, converted by molar mass.

What was measured:
primary hfRPE culture [1] = test: Trans-epithelial electrical resistance (TEER), tight-junction integrity; assay type: cell-based; conditions: TEER measured after 20 FLBZ feedings, after UAM accumulation
Method: TEER and cell death were measured [Ref 51; incorporated by reference in its entirety]. For cell death assays, maximum possible LDH release per Transwell was measured immediately after 2 μL of the final experimental supernate was taken. The Transwell and supernate was then treated with 0.2% Triton X-100 for 15 minutes at 37° C. followed by collection of an additional 2 μL of supernate. Each experimental LDH release value was first normalized to total LDH release from the vehicle condition. Additionally, all TEER and LDH release measurements were normalized to the vehicle group at the zero-hour timepoint.
(§1) To evaluate the safety of D4476 and FLBZ, trans-epithelial electrical resistance (TEER) was measured, a measure of tight-junction integrity, in RPE cultures after prolonged exposure to each compound. As well-formed tight-junctions require myriad cell processes to be optimally coordinated, assessing TEER provides an easily measurable, ongoing, and noninvasive marker for general RPE cell health [Ref. 45; incorporated by reference in its entirety]. […] Lactate dehydrogenase (LDH) release, a combined marker of necrotic and late-stage apoptotic cell death [Refs. 47,48; incorporated by reference in their entireties], was reduced compared to vehicle for all four verified RPE autophagy inducers (FIG. 3b). Exposure of RPE cultures to the oxidant tert-butyl hydroperoxide confirmed the ability of the assay to detect cell death (FIG. 10).
Transepithelial Electrical Resistance (TEER) was tested (FIGS. 16 and 17). TEER is a sensitive measure of toxicity (lower the TEER, the more toxic the drug is). Drugs were added daily and measurements made daily for at least 4-8 days.

hfRPE = assay type: cell-based, human
Method: Whole mounted Transwells (in duplicate) are photographed.
as §1

RPE of mouse eye = test: Intravitreal injection in mouse eyes, autophagy by LC3II/LC3I ratio of lysates; assay type: in vivo; conditions: four concentrations up to 500 uM, multiple timepoints, DMSO in other eye
Method: Experiments were conducted during development of embodiments herein to assay for autophagy in the mouse eye. Experiments were conducted to measure autophagy by giving an intraperitoneal injection of leupeptin, followed by assaying for LC3 puncta in an RPE flatmount of a GFP-LC3 mouse. Background from GFP-LC3 debris deposited on the RPE when the retina was peeled off for the flat mount prevented signal detection. A biochemical assay was then employed for autophagy induction, measuring an increase in the lipidation of the autophagy core protein LC3 (lipidated LC3=LC3-II, unlipidated LC3=LC3-I, so higher LC3-II/LC3-I ratio indicates autophagy induction). Sufficient signal as obtained. […] Harvesting techniques were also optimized for collecting RPE from mouse eyes.
Experiments were conducted during development of embodiments herein to establish a positive control for autophagy induction. […] Autophagy induction was measured at 4 different concentrations of Torin (500 nm, 5 um, 50 um, 500 um) and at 5 different timepoints after injection (1 day, 3 days, 7 days, 14 days, 28 days). […] Nevertheless, the ability of intravitreal injections of FLBZ to induce autophagy in the RPE was assessed. In preparation for injecting FLBZ intravitreally into mice, solubility assays were performed and the maximum amount of FLBZ that can be injected without it crashing out of solution in the vitreous was determined. […]

primary hfRPE culture [2] = test: Undigestible autofluorescent material (UAM) accumulation, elimination and granule size after oxOS feedings; assay type: cell-based, human
[3] = Solubility assays of DMSO stock mixed with PBS (simulating the vitreous); assay type: physicochemical
Method: Experiments were conducted during development of embodiments herein to establish a positive control for autophagy induction. The direct mTOR inhibitor Torin1 was selected over rapamycin/sirolimus as the positive control, based on the capacity of Torin1 to induce autophagy in primary culture more strongly and more consistently than rapamycin. The experimental set-up involved injecting one eye with Torin and the other eye with the DMSO vehicle. Autophagy induction was measured at 4 different concentrations of Torin (500 nm, 5 um, 50 um, 500 um) and at 5 different timepoints after injection (1 day, 3 days, 7 days, 14 days, 28 days). […] Nevertheless, the ability of intravitreal injections of FLBZ to induce autophagy in the RPE was assessed. In preparation for injecting FLBZ intravitreally into mice, solubility assays were performed and the maximum amount of FLBZ that can be injected without it crashing out of solution in the vitreous was determined. […] This helped inform maximal concentrations of flubendazole that could be injected intravitreally. Four different concentrations were injected, up to the maximum solubility of FLBZ, and autophagy induction was assayed over a timeframe ranging from 1 week to 4 weeks after injection.

[4] = tested on: primary human fetal RPE (hfRPE) culture; test: Autophagy flux assay with NH4Cl lysosomal alkalinization; assay type: cell-based; conditions: inducer 22.5 hours, then 25 mM NH4Cl for final 1.5 hours
Method: Cultures were exposed to compounds or vehicle (DMSO) for 24 hours. […] (C) Autophagy flux assays. After application of inducers or vehicle (DMSO) for 22.5 hours, 25 mM of NH4Cl, a lysosomal alkalizing agent, or H2O were added for a final 1.5 hours to inhibit autophagy flux.
Increases in both LC3 lipidation and autophagosome formation could result from downstream blockade of autophagy at the lysosome.

ARPE-19 = test: LC3 colocalization to UAM granules; assay type: cell-based, human; conditions: ARPE-19 treated with drug
Excerpt: FIG. 5. Autophagy inducer FLBZ reduces accumulation of lipofuscin-like material. (A) Lipofuscin-like material, which we term undigestible autofluorescent material (UAM), accumulates in RPE after repeated feedings of photo-oxidized outer segments (oxOS). UAM granules (green). DAPI (blue). Phalloidin stain of F-actin outlining cell borders (pink). Scale bar: 10 μm. (B) Effects of FLBZ or Torin on UAM accumulation (left) and elimination (right). FLBZ or Torin is fed together with oxOS daily for 20 days in a month (left, n=5) or fed daily for 20 days in a month after completion of oxOS feedings to stimulate UAM accumulation (right, n=7). Unlike Torin, FLBZ both reduces UAM accumulation and increases UAM elimination. DMSO as vehicle control. U 673 AM normalized to DMSO condition. […] UAM (red). LC3 (green). DAPI (blue). Arrows indicate LC3 puncta surrounding a lipofuscin granule. Scale bar: 2 μm. (D) Effects of FLBZ on UAM granule size. Compared to vehicle (DMSO), FLBZ decreases UAM granule size both during oxOS feedings (left) and after UAM buildup has already occurred (right). n=40. ns p>0.05, *p<0.05, **p<0.01, ***p<0.001.
Human fetal eyes were obtained from Advanced Bioscience Resources (ABR, Alameda, California) and cultured [Ref. 43; incorporated by reference in its entirety]. ARPE-19 cells were cultured at passage 19 [Ref. 51; incorporated by reference in its entirety].

COC(=O)Nc1nc2cc(C(=O)c3ccc(F)cc3)ccc2[nH]1 [FLBZ, Flubendazole]
Cell health by tight-junction integrity (TEER) in cultures with established UAM (primary hfRPE culture [1]): improved cell health | RPE pigmentation (hfRPE): preserved pigmentation | Autophagy induction in RPE after intravitreal injection (LC3II/LC3I ratio) (RPE of mouse eye): no convincing evidence for autophagy induction | UAM granule size, drug during oxOS feedings (primary hfRPE culture [2]; concurrent feeding of oxOS and drug): smaller than untreated cultures | UAM accumulation, drug fed concurrently with oxOS (primary hfRPE culture [2]; fed daily with oxOS over a month, FLBZ 12 μM, Torin 1 μM, vs vehicle): significantly less UAM accumulation | UAM granule size, drug after UAM buildup (primary hfRPE culture [2]; twenty drug feedings after UAM accrual): smaller granule size | UAM level, drug fed after UAM had accumulated (primary hfRPE culture [2]; twenty oxOS feedings, wash, then twenty drug feedings over an additional month): significantly lower levels of UAM | solubility ([3]; DMSO stock solution mixed with PBS (simulating the vitreous), aqueous with cosolvent or surfactant or cyclodextrin, kinetic from dmso stock, delivered in 1 ul of DMSO, read-out: Maximum soluble concentration for intravitreal injection): 500 µM (≈ 157 µg/mL) | Precipitation of DMSO stock solution when mixed with PBS ([3]; Torin 1 mM stock mixed 1:1 with PBS, flubendazole 3 mM stock): crashed out when mixed with PBS unless at a dilution of 1:20 or more | Autophagy flux: LC3-II/LC3-I ratio after NH4Cl [4]: induces autophagy flux | LC3 colocalization to UAM granules (ARPE-19): LC3 colocalization to UAM granules
